This note sets out measurements from article PMC12021657, “Rapid traversal of vast chemical space using machine learning-guided docking screens” (Nature Computational Science, 2025).

Where two headings read alike, the source gives them in different places.

For assay [1], the target named is T1, Human D2R (Homo sapiens, UniProt P14416).
T1 construct: expressed in transfected cells
In words: Human D2R competition radioligand binding ([3H]-spiperone, CHO-D2R #S20 membranes). Conditions: for D2R radioligand displacement at 10 µM (%) / inhibition at 10 µM: 10 µM compound, mean ± SEM of two technical replicates; for inhibition at 10 µM: 2 h, read-out: D2R radioligand displacement at 10 µM (%); for Ki: mean ± SEM from three independent experiments. How it is done: (§1) Screening compounds (Supplementary Tables 10 and 12) were purchased from Enamine (compound purity >90%, which was confirmed by liquid chromatography−mass spectrometry and ^1H NMR spectroscopy for identified ligands; Supplementary Figs. 19–30). Human D2R competition binding experiments were carried out in polypropylene 96-well plates. Each well contained 20 µg of membranes from a CHO-D2R #S20 cell line (protein concentration of 4,322 µg ml^−1), 1.5 nM [^3H]-spiperone (54.3 Ci mmol^−1, 1 mCi ml^−1, PerkinElmer NET1187250UC) and the compound studied. Non-specific binding was determined in the presence of 10 µM sulpiride (Sigma Aldrich S8010). The reaction mixture (250 µl per well) was incubated at 25 °C for 120 min, after which 200 µl was transferred to a GF/C 96-well plate (Millipore) pretreated with 0.5% PEI and treated with binding buffer (50 mM Tris-HCl, 1 mM EDTA, 5 mM MgCl2, 5 mM KCl, 120 mM NaCl, pH 7.4). The reaction mixture was filtered and washed 4 times with 250 µl wash buffer (50 mM Tris-HCl, 0.9% NaCl, pH 7.4) before the addition of 30 μl Universol. The final measurement was performed in a microplate beta scintillation counter (Microbeta Trilux, PerkinElmer). Human A2AR competition binding experiments were carried out in a multiscreen GF/C 96-well plate (Millipore) pretreated with binding buffer (Tris-HCl 50 mM, EDTA 1 mM, MgCl2 10 mM, 2 U ml^−1 adenosine deaminase, pH 7.4). Each well was incubated with 5 μg of membranes from the HeLa-A2A cell line and prepared in our laboratory (lot A003/14-04-2019, protein concentration 2,058 μg ml^−1), 1 nM [^3H]-ZM241385 (50 Ci mmol^−1, 1 mCi ml^−1, ARC-ITISA 0884), and the compounds studied and standards. Non-specific binding was determined in the presence of NECA 50 μM (Sigma E2387). The reaction mixture (total volume of 200 μl per well) was incubated at 25 °C for 30 min, then filtered and washed 4 times with 250 μl wash buffer (Tris-HCl 50 mM, EDTA 1 mM, MgCl2 10 mM, pH 7.4), and measured in a microplate beta scintillation counter (Microbeta Trilux, PerkinElmer). Unless stated otherwise, three independent experiments were carried out to calculate Ki values.
(Displacement assays read how much labelled ligand stays bound in the presence of the test substance.)

Assay [2] deals with T1, Human D2R. In words: Human D2R functional cAMP assay (HTRF, CHO-D2 #S20 cells, forskolin). The format is cell-based. Conditions: for functional character at D2R: cAMP assay; for Emax: read-out: Emax (maximal effect). The protocol: Human D2R activity was measured by determining the amount of cAMP produced. Human D2R functional experiments were carried out in a CHO-D2 #S20 cell line. Five-thousand cells were seeded in 30 μl of Optimem (Invitrogen 11058) + 500 μM IBMX (Sigma 17018) on a 96-well black-and-white isoplate (PerkinElmer 6005030). Test compounds and dopamine were added in their corresponding wells and incubated for 10 min at 37 °C with gentle stirring (150 r.p.m.). Then, 10 µM forskolin (Sigma 17018) was added and incubated for 5 min at 37 °C with gentle stirring (150 r.p.m.). Reagents from the kit (#CISBIO 62AM4PEC) were added and incubated for 1 h at room temperature with gentle stirring (90 r.p.m.) and protected from light. HTRF (excitation wavelength: 320 nm; emission wavelengths: 620–665 nm) from each well was measured using a Tecan Infinite M1000 Pro. Two independent experiments were carried out to calculate EC50 and Emax values.
In general terms: cAMP levels reflect the balance of adenylyl cyclase and phosphodiesterase activity.

The target of a further assay is T2, Human A2AR (Homo sapiens, UniProt P29274).
T2 construct: expressed in transfected cells; host or cells: HeLa-A2A cell line (membranes prepared in house, lot A003/14-04-2019)
T2 sequence (P29274 whole entry): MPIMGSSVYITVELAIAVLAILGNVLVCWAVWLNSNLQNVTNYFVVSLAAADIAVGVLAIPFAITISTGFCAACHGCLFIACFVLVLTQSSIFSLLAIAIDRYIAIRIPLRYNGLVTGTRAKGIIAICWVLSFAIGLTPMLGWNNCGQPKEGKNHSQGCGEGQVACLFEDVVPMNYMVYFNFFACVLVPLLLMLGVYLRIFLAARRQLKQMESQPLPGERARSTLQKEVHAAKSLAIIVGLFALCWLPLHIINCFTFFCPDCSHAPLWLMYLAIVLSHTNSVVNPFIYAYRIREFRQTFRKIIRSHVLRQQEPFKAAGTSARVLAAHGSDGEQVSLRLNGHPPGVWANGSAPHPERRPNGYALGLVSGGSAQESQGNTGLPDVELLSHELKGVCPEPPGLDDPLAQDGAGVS
Nature of the assay: Human A2AR competition radioligand binding ([3H]-ZM241385, HeLa-A2A membranes). Conditions: for A2AR radioligand displacement at 20 µM (%): 20 µM compound, mean ± SEM of two technical replicates. The protocol: as §1

T1 sequence (P14416 whole entry): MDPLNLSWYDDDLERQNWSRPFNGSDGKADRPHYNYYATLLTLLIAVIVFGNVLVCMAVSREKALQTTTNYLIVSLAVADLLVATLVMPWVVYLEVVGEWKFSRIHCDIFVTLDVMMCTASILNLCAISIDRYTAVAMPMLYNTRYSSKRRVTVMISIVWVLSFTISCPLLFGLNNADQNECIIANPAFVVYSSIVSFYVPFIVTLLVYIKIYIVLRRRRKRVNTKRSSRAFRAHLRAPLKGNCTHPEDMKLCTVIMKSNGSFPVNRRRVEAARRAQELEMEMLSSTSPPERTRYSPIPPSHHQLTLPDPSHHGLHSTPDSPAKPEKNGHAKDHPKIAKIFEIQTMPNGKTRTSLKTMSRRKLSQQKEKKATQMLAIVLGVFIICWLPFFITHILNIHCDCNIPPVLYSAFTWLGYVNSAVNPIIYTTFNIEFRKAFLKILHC

As to `Fc1ccc(-n2ccc(CCNC3Cc4ccccc4C3)n2)cc1` [Compound 1, c1ccc2c(c1)CC(C2)NCCc3ccn(n3)c4ccc(cc4)F], the “D2R radioligand displacement at 10 µM (%)” value at Human D2R [1] (listed as Z1441695252) is 59 ± 1%. For the same compound, on Human D2R [1], the inhibition at 10 µM came to 59 ± 1% and the inhibition constant (Ki) came to 3 µM. Besides, on Human D2R [2] (CHO-D2 #S20 cells, two independent experiments, read-out: EC50 (D2R-mediated changes in intracellular cAMP)), the EC50 came to 10 µM. Further, on Human D2R [2], the “functional character at D2R” value is given as “full agonists” and the Emax came out at 99%.

With `Cc1cnccc1CCN1CCC(Oc2ccccc2Cl)C1` (centres unmarked) [Compound 2, Cc1cnccc1CCN2CCC(C2)Oc3ccccc3Cl], the “D2R radioligand displacement at 10 µM (%)” value at Human D2R [1] (listed as Z2436421891) is 56 ± 2%. Also, on Human D2R [1], the inhibition at 10 µM is 56 ± 2% and the inhibition constant Ki worked out at 3.8 µM. At Human D2R [2], the 50% effective concentration (EC50) came out at 14 µM, the “functional character at D2R” value is recorded as “full agonists” and the maximal effect (Emax) was found to be 100%.

Regarding `NC(=NCCc1c[nH]c2c(Cl)cc(Cl)cc12)Nc1ncccn1` [Compound 5, c1cnc(nc1)NC(=NCCc2c[nH]c3c2cc(cc3Cl)Cl)N], the Ki at Human D2R [1] is 14 µM; at Human A2AR (fit to concentration-response curve from two technical replicates, compound 5 three independent experiments (mean ± SEM), read-out: Ki (A2AR)), around 20 µM.

Consider `NC(=NCCc1ccc(F)cc1)Nc1ncccn1` [Z8854579370, c1cnc(nc1)NC(=NCCc2ccc(cc2)F)N], for which the “A2AR radioligand displacement at 20 µM (%)” value on Human A2AR was 11±1%.

As for `Cc1ccncc1CNC(=O)C(N)Cc1c[nH]c2ncccc12` (centres unmarked) [Z8857701713, Cc1ccncc1CNC(=O)C(Cc2c[nH]c3c2cccn3)N], on Human A2AR, the “A2AR radioligand displacement at 20 µM (%)” value came to 3±2%.

For the compound `NC(=NCc1c(Cl)cccc1Cl)Nc1ncccn1` [Z8861112994, c1cc(c(c(c1)Cl)CN=C(N)Nc2ncccn2)Cl], the “A2AR radioligand displacement at 20 µM (%)” value at Human A2AR was determined as 32±2%.

In general, Ki refers to the dissociation constant of the complex between target and ligand, obtained from inhibition or displacement. As a reminder, the EC50 is the concentration at which the effect is half-maximal. What is called Emax is the maximal effect, on the per cent scale that the assay sets.
